In the Kinase Knowledgebase extract (Sharma et al. 2016):

Biological target: MAPK14 (human) (UniProt Q16539)
Assay: Assessment of MAPK14 Kinase Activity

Chain of MAPK14 (human) (Q16539 whole entry, looked up): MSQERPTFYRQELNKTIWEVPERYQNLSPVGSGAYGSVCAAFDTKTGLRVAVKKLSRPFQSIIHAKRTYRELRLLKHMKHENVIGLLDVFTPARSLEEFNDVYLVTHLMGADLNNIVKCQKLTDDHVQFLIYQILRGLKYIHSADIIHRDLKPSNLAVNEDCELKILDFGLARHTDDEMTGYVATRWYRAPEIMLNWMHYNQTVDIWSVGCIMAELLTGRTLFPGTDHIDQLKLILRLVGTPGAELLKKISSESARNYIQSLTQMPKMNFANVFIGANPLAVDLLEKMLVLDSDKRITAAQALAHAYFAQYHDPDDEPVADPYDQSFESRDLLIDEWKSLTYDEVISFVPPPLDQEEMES

SMILES | IC50
Cc1ccc(C(=O)NC2CC2)cc1-n1ncc(C(=O)c2cccc(I)c2)c1N | < 1000 nM
Cc1ccc(C(=O)NC2CC2)cc1-n1nc(OC2CCN(C(=O)OC(C)(C)C)CC2)c(C(=O)c2ccccc2)c1N | < 1000 nM
Cc1ccc(C(=O)NC2CC2)cc1-n1cnc(C(=O)C2CCOCC2)c1N | < 1000 nM
CCOC(=O)c1cnn(-c2cc(C(=O)NC3CC3)ccc2C)c1N | < 1000 nM
Cc1ccc(C(=O)NC2CC2)cc1-n1ncc(C(=O)Nc2ccccc2)c1N | < 1000 nM
Cc1ccc(C(=O)NC2CC2)cc1-n1ncc(C(=O)c2cccc(CO)c2)c1N | < 1000 nM
Cc1ccc(C(=O)O)cc1-n1ncc(C(=O)c2ccccc2)c1N | 1000 to 10000 nM
Cc1ccc(C(=O)NC2CC2)cc1-n1ncc(C(=O)c2cccc(C3OCCO3)c2)c1N | < 1000 nM
Cc1ccc(C(=O)O)cc1-n1ncc(C(=O)c2cccc(I)c2)c1N | 1000 to 10000 nM
Cc1ccc(C(=O)NC2CC2)cc1-n1ncc(C(=O)c2cccc(OCC(O)CO)c2)c1N (configuration not stated) | < 1000 nM
COc1nn(-c2cc(C(=O)NC3CC3)ccc2C)c(N)c1C(=O)c1ccccc1 | < 1000 nM
CCOC(=O)c1c(OCC(=O)NCc2cccc(Cl)c2)nn(-c2cc(C(=O)NC3CC3)ccc2C)c1N | < 1000 nM
Cc1ccc(C(=O)NC2CC2)cc1-n1ncc(C(=O)NC2CCCCC2C)c1N (configuration not stated) | < 1000 nM
Cc1ccc(C(=O)NC2CC2)cc1-n1nc(OCCOCc2ccccc2)c(C(=O)c2ccccc2)c1N | < 1000 nM
CCOC(=O)c1c(C)nn(-c2cc(C(=O)NC3CC3)ccc2C)c1N | < 1000 nM
Cc1ccc(-c2nnc[nH]2)cc1-n1ncc(C(=O)c2ccccc2)c1N | < 1000 nM
Cc1ccc(C(=O)NC2CC2)cc1-n1ncc(C(=O)NCC(C)(C)C)c1N | < 1000 nM
CONC(=O)c1ccc(C)c(-n2ncc(C(=O)c3cccc(I)c3)c2N)c1 | < 1000 nM
Cc1ccc(C(=O)NC2CC2)cc1-n1cnc(C(=O)c2ccc3c(c2)OCO3)c1N | < 1000 nM
Cc1ccc(C(=O)NC2CC2)cc1-n1ncc(C(=O)c2cccc(-c3nnco3)c2)c1N | < 1000 nM
Cc1ccc(C(=O)NC2CC2)cc1-n1ncc(C(=O)c2ccccc2)c1N | < 1000 nM
Cc1ccc(C(=O)NC2CC2)cc1-n1cnc(C(=O)C2CCCCC2)c1N | < 1000 nM
CONC(=O)c1ccc(C)c(-n2ncc(C(=O)c3ccccc3)c2N)c1 | < 1000 nM
Cc1ccc(C(=O)NC2CC2)cc1-n1cnc(C(=O)c2ccccn2)c1N | < 1000 nM
Cc1ccc(C(=O)NC2CC2)cc1-n1ncc(C(=O)c2cccc(C=O)c2)c1N | < 1000 nM
Cc1ccc(C(=O)NC2CC2)cc1-n1ncc(C(=O)NC2CCc3ccccc32)c1N (configuration not stated) | < 1000 nM
Cc1ccc(C(=O)NC2CC2)cc1-n1ncc(C(=O)c2cccc(C#N)c2)c1N | < 1000 nM
